Test results taken from ChEMBL document CHEMBL1159196, “Lignans interfering with 5 alpha-dihydrotestosterone binding to human sex hormone-binding globulin” (J Nat Prod, 1998).

How the values were obtained:
[1] = target: T1, Sex hormone-binding globulin (Homo sapiens, UniProt P04278); test: Displacement of [3H]DHT from human serum SHBG
T1 sequence (P04278 whole entry): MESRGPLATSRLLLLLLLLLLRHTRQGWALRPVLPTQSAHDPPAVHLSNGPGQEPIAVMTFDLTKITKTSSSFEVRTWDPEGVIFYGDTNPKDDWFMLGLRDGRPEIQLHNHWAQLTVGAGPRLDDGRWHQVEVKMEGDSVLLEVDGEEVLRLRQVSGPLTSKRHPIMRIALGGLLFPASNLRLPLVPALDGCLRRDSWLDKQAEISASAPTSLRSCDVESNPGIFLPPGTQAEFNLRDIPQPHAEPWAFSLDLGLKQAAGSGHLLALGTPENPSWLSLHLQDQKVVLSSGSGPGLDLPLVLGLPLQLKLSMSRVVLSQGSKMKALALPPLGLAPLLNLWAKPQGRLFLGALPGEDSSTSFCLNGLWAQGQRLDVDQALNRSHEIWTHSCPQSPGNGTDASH

[2] = target: T2, Sex hormone-binding globulin (Homo sapiens) (UniProt P04278); test: Binding affinity to SHBG at 4 degC
T2 sequence (whole entry): T1 sequence (P04278 whole entry)

[3] = target: T2, Sex hormone-binding globulin (Homo sapiens); test: Binding affinity to human serum SHBG at 4 degC by competitive inhibition assay
[4] = target: T2, Sex hormone-binding globulin (Homo sapiens); test: Binding affinity to SHBG

Structure (SMILES)	IC50 [1]	Ka [4]	other results
O=C1OCC(Cc2cccc(O)c2)C1Cc1cccc(O)c1 (racemic)	620 µM		
COc1cc(C[C@@H](CO)[C@H](CO)Cc2ccc(O)c(OC)c2)ccc1O [(+)-SECOISOLARICIRESINOL]	230 µM		
COc1cc(C[C@H]2COC[C@@H]2Cc2ccc(O)c(OC)c2)ccc1O			Ka [2]: 0.98 ×10⁹ /M; Ka [3]: 3.2 ×10⁶ /M
C[C@]12CC[C@@H]3c4ccc(O)cc4CC[C@H]3[C@@H]1CC[C@@H]2O		5 ×10⁸ /M	
C[C@]12CCC(=O)C[C@@H]1CC[C@@H]1[C@@H]2CC[C@]2(C)[C@@H](O)CC[C@@H]12		2 ×10⁹ /M	
C[C@]12CC[C@H]3[C@@H](CCC4=CC(=O)CC[C@@]43C)[C@@H]1CC[C@@H]2O		1 ×10⁹ /M	
COc1cc(C[C@H]2COC(=O)[C@@H]2Cc2ccc(O)c(OC)c2)ccc1O [MATAIRESINOL]	52 µM		
